Data from patent publication US6365616B1, “Methimazole derivatives and tautomeric cyclic thiones to treat autoimmune diseases” (Sentron Medical, Inc., priority 1998, dated 2002).
Where two headings read alike, the source gives them in different places.

Columns and labels:
[1] = tested on: HLA-DRα class II promoter; assay: Transient transfection CAT assay, HLA-DRα class II promoter chimeras in FRTL-5 cells; assay type: cell-based; details: 100 U/ml γ-interferon, 6H medium
Description: Construction of the HLA-DR promoter constructs has also been described as have been their characteristics (Reimold A M, et al., ibid (1993)). Additional CAT constructs were constructed by PCR, using the HLA-DRα-CAT chimera containing −176 to +45 of 5′-flanking region as template and various primers (Montani V. et al., ibid (1998a,b)). For example, a plasmid containing −38 to +45 bp of the 5′-flanking region of HLA-DRα was constructed with the following primers: a 5′ primer with a 5′ Sph I restriction site, 5′-[…]-3′ and a 3′ primer, 5′-[…]-3′, with an Xba I restriction site (Montani V., et al., ibid (1998a,b)). The PCR products were purified by phenol-chloroform extraction, digested with Xba I and Sph I, purified from a 2% agarose gel with Jet Sorb (Genomed, Frederick, Md.), dephosphorylated with calf intestinal alkaline phosphatase (New England Biolabs, Beverly, Mass.), and religated (DNA ligation kit, Takara Biochemical, Inc., Berkeley, Calif.) into the pCAT-Basic Vector (Promega, Madison, Wis.) at the Sph I and Xba I sites as described (Reimold AM, et al., ibid (1993); Montani V., et al., ibid (1998a,b)).
To measure the promoter activity of MHC class II promoter constructs, transient transfections in FRTL-5 cells were performed, using one of the following procedures (Montani V., et al., ibid (1998a, b)). In one, FRTL-5 cells were cultivated in 6H medium to approximately 80% confluency, harvested, washed, and resuspended (1.5×10^7 cells/ml) in 0.85 ml electroporation buffer (272 mM sucrose, 7 mM sodium phosphate buffer pH 7.4, and 1 mM MgCl2). Plasmid DNA was added, 20 μg of the CAT chimera together with 2 μg pRSV-luciferase which is used to measure the efficiency of transfection. Cells were pulsed (330 V; capacitance 25 μfarad), plated (6×10^6 cells/10 cm dish), and cultured in 6H medium plus 5% calf serum supplemented or not with γ-IFN. At the times noted, cells were harvested for CAT and luciferase assays. The second procedure differed as follows. FRTL-5 cells were grown to 80% confluency in 6H medium, then maintained 6 days in 5H medium plus 5% calf serum. Cells were returned to 6H medium for 12 hours, transfected as described above, and maintained in 6H medium plus 5% calf serum for twelve hours. The medium was then changed to fresh 5H medium with 5% calf serum supplemented or not with γ-IFN. […] CAT activity was measured as described above and values were normalized to luciferase activity measured using the Promega (Madison, Wis.) assay system.
To test the effect of MMI, MMI derivatives or tautomeric cyclic thiones on γ-IFN-increased class II expression in FRTL-5 thyroid cells, the following procedure was used. Transient transfections with the −137 bp or −176 bp DRα-CAT chimeras were performed as described and treated with 100 U/ml γ-IFN for the noted times starting 12 hours after transfection. […]
In this experiment, like previous experiments, transient transfections were performed in FRTL-5 cells grown to 80% confluency in 6H medium, maintained 6 days in SH medium, and returned to 6H medium for 12 h before transfection as described. Twelve hours later, the medium was changed to fresh 5H medium, supplemented or not with 100 U/ml γ-IFN and/or 5 mM MMI. CAT activity was measured 48 h thereafter. […] Results are the mean ±SD of 3 separate experiments.

[2] = tested on: swine class I promoter (PD1); assay: Luciferase assay, FRTL-5 cells stably transfected with class I promoter-luciferase chimeras; assay type: cell-based; details: 6H medium, 40 hours; for inhibition at 10 µM / inhibition at 25 µM / inhibition at 100 µM / inhibition at 1000 µM: Sus scrofa, FRTL-5
Description: The swine PD1 5′-flanking sequence-CAT chimeras (−1100, −203, and −127), as well as two mutants with the CRE site with −107 to −100 bp deleted (−203ΔCRE and −127ΔCRE) were used to create luciferase reporter gene constructs. The inserts were released by restriction enzyme digestion, purified from agarose gel using QIAEX (QIAGEN, Chatsworth, Calif.) and ligated in the NheI-HindIII site of the PGL-2 basic vector (PROMEGA, Madison, Wis.) using a DNA ligation kit from TAKARA biomedicals (TAKARA SHUZO Co). JM109 bacterial competent cells (PROMEGA, Madison, Wis.) were transformed with the ligation reaction and plated in agar plates for 12 h at 37° C. The colonies were picked and screened with minipreps using QIAprep spin plasmid kit (QIAGEN, Chatsworth, Calif.) and restriction enzyme digestion. The plasmids were then purified by CsCl gradient centrifugation.
The PD1-PGL-2 basic constructs and the Class II-PGL-2 basic constructs were stably transfected in the FRTL-5 cells using a Lipofectamine (GIBCO, Life Technologies, Inc.) method. Near confluent cells in 6H medium were cotransfected with 20 μg of plasmid DNA and 2 μg of a pcDNA3neo or a pPUR selection vector (CLONTECH, Palo Alto, Calif.). After 24-48 hours, 400 μg/ml of G418 (GIBCO, Life Technologies, Inc.) or 10 μM of puromycin (SIGMA) were added to the medium. After 3 weeks the antibiotic-resistant colonies were cloned by limiting dilution and screened to determine their interferon sensitivity. At least 5 cell lines of each construct were isolated, each of whose activity was increased by adding 100 U/ml γ interferon to the medium of the cells. The following data (Tables 10-13) were obtained with one clone of each of the class I or class II-luciferase chimera, but were representative of at least three other clones of each.
Luciferase activity was measured using the Luciferase assay system (PROMEGA, Madison, Wis.). Briefly, treated or untreated cells from a 100 mm culture dish were washed with PBS, scraped and collected in microfuge tubes. The pellet was dissolved in 100 μl 1× reporter lysis buffer and incubated at room temperature for 15 minutes. Cells were frozen in dry ice plus ethanol and thawed in water at room temperature. After vortexing for 10 sec, tubes were centrifuged at 12,000×g for 5 min. Twenty μl of the supernatant were mixed with 100 μl of Luciferase assay reagent and immediately placed in a luminometer. Light was measured for a period of 10 sec after a 2 sec delay.
Treatment of cells, maintained either in the presence of TSH or its absence, with 100 U/ml interferon, increased class I and class II promoter activity (Table 10). In this experiment FRTL-5 cells were grown to 80% confluency in 6H medium with TSH then treated with 100 U/ml γ-interferon, 5 mM MMI or both together. Luciferase activity was measured after 40 hours as described. Several points are notable. First, interferon increases both class I and class II promoter activity in the stable transfectants. Second, MMI inhibits both interferon-increased class I and interferon-increased class II promoter activity.

[3] = FRTL-5, 10 μM, read-out: % inhibition of IFN-increased p(−137)CAT class II promoter activity
[4] = FRTL-5, 100 μM, read-out: % inhibition of IFN-increased p(−137)CAT class II promoter activity
[5] = FRTL-5, 0.5 mM, read-out: % inhibition of IFN-increased p(−137)CAT class II promoter activity
[6] = 10 μM, 100 U/ml γ-interferon, read-out: % inhibition of IFN-increased p(−203)LUC class I promoter activity
[7] = 25 μM, read-out: % inhibition of basal p(−203)LUC class I promoter activity
[8] = 100 μM, read-out: % inhibition of basal p(−203)LUC class I promoter activity
[9] = 100 μM, 100 U/ml γ-interferon, read-out: % inhibition of IFN-increased p(−203)LUC class I promoter activity
[10] = 1.0 mM, read-out: % inhibition of basal p(−203)LUC class I promoter activity
[11] = 1.0 mM, 100 U/ml γ-interferon, read-out: % inhibition of IFN-increased p(−203)LUC class I promoter activity

SMILES	% inhibition of IFN-increased p(−137)CAT class II promoter activity ([1]; 10 μM) [%]	% inhibition of IFN-increased p(−137)CAT class II promoter activity ([1]; 100 μM) [%]	% inhibition of IFN-increased p(−137)CAT class II promoter activity ([1]; 0.5 mM) [%]	% inhibition of IFN-increased p(−137)CAT class II promoter activity ([1]; 5 mM) [%]	% inhibition of IFN-increased p(−203)LUC class I promoter activity ([2]; 10 μM, 100 U/ml γ-interferon) [%]	% inhibition of basal p(−203)LUC class I promoter activity ([2]; 25 μM) [%]	% inhibition of basal p(−203)LUC class I promoter activity ([2]; 100 μM) [%]	% inhibition of IFN-increased p(−203)LUC class I promoter activity ([2]; 100 μM, 100 U/ml γ-interferon) [%]	% inhibition of basal p(−203)LUC class I promoter activity ([2]; 1.0 mM) [%]	% inhibition of IFN-increased p(−203)LUC class I promoter activity ([2]; 1.0 mM, 100 U/ml γ-interferon) [%]	inhibition at 10 µM [1, 3] [%]	inhibition at 100 µM [1, 4] [%]	inhibition at 500 µM [1, 5] [%]	inhibition at 5000 µM ([1]; FRTL-5, 5 mM, read-out: % inhibition of IFN-increased p(−137)CAT class II promoter activity) [%]	inhibition at 10 µM [2, 6] [%]	inhibition at 25 µM [2, 7] [%]	inhibition at 100 µM [2, 8] [%]	inhibition at 100 µM [2, 9] [%]	inhibition at 1000 µM [2, 10] [%]	inhibition at 1000 µM [2, 11] [%]
Cn1ccn(C)c1=S [Compound 8, N-Methylmethimazole]	0	43 ± 9	79 ± 11	88 ± 10	0	9 ± 6	44 ± 10	42 ± 14	51 ± 7	77 ± 10	–	–	–	–	–	–	–	–	–	–
Cc1cnc(S)n1C [Compound 9, 5-Methylmethimazole]	–	–	–	–	–	–	–	–	–	–	0	0	14 ± 12	44 ± 18	0	0	0	0	10 ± 10	15 ± 11
Cn1c(-c2ccccc2)cnc1S [Compound 10, 5-Phenylmethimazole]	–	–	–	–	–	–	–	–	–	–	45 ± 17	88 ± 15	95 ± 5	–	45 ± 7	41 ± 5	51 ± 3	90 ± 17	52 ± 8	90 ± 13
